{
  "source": "patent EP0227818B1",
  "about": "“ANTIGLAUCOMA COMPOSITIONS” (SCHERING CORPORATION, priority 1985, dated 1987)",
  "key": {"[1]": {"experiment": "Gross examination of cornea, iris, conjunctivae and pupil diameter for ocular irritation in the IOP study", "type": "in vivo, Male New Zealand white rabbits", "settings": "rabbits, topical ocular dosing", "from_the_text": "Prior to drug administration and at each IOP determination, the cornea, iris, and conjunctivae were grossly examined for signs of irritation. Pupil diameter was also examined but detailed measurements were not made."}, "[2]": {"tested_on": "intraocular pressure (IOP)", "experiment": "Intraocular pressure (IOP) lowering in conscious normotensive rabbits after topical dosing, applanation tonometer", "type": "in vivo, Male New Zealand white rabbits", "settings": "0.5% Timolol alone (plus 50 µl vehicle 1), 50 µl topical to left eye, mean ± SEM; statistically significant vs placebo; concentration giving maximum IOP reduction with timolol alone", "method": "Food and water were allowed ad libitum. The rabbits were maintained on a light cycle of 12 h darkness (7 PM to 7 AM) followed by 12 h of light. Animals were conditioned to their handlers and the laboratory setting and IOP measurements for at least one 4 h period before being used to study drug effects.\nRabbits were restrained in a cloth sack approximately 2 min prior to IOP determinations. The left lower eyelid was retracted forming a pouch and 1 drop of the local anesthetic proparacaine (0.05% w/v) was irrigated over the cornea. The eyelid was then held closed over the eye about 1 min. IOP was usually monitored 1 h before dosing, at zero time (immediately prior to dosing), and hourly for the next 4 h. Only rabbits with IOP's of 18-23 mmHg and showing no sign of ocular irritation were used in drug studies.\nIOP, in mmHg, was determined in triplicate with a McKag-Marg applanation tonometer and the average reading was recorded. The tonometer had previously been calibrated against direct manometric determination of IOP in living eyes of barbiturate-anesthetized rabbits. Internal calibration signals of the McKay-Marg unit were checked after every eight readings or less. […]\nThe data (mean I SEM) were analyzed using analysis of variance and Dunnett's or Duncan's comparisons and are expressed as peak changes in IOP. […]"}},
  "data": [
    {"molecule": "CC(C)(C)NC[C@H](O)COc1nsnc1N1CCOCC1", "note": "[Timolol, 1-[(1,1-dimethylethyl)amino]-3-[(4-morpholinyl-1,2,5-thiadiazol-3-yl)-oxy]-2-propanol]", "values": [
      {"measurement": "signs of acute ocular irritation", "setting": "[1]; all concentrations tested", "result": "None"},
      {"measurement": "Pupillary diameters", "setting": "[1]; examined, detailed measurements not made", "result": "not affected"},
      {"measurement": "Peak Change in IOP", "setting": "[2]", "result": "-3.0±0.4^(1) mmHg"}
    ]}
  ]
}
